Laboratory results reported in the supplement of paper PMC6470124.

Tests used:
[1] = absolute recovery over vacuum-assisted evaporative concentration; higher = better recovery; conditions: enrichment method: VEC
In short: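 After spiking with standards before concentration, after concentration or not at all, at 1000 ng/L for wastewater or 200 ng/L for nanopure and surface water with class- and compound-specific adjustments, samples of 6 mL influent, 15 mL effluent and 60 mL surface or nanopure water were evaporated at 55 °C and 20 mbar to about 0.3 mL. They were brought to 0.4 mL, centrifuged, given internal standards and analysed by LC-HRMS/MS. Absolute recovery, (response ratio pre − unspiked)/(post − unspiked) × 100, used averages of ≥ 2 replicates.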

[2] = absolute recovery over mixed-bed multilayer solid-phase extraction; higher = better recovery; conditions: enrichment method: SPE
In short: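 Absolute recovery was calculated by comparing background-corrected response ratios of samples spiked before extraction with those spiked after it, averaged over at least two replicates. Wastewater (100–250 mL, adjusted to pH 6.5 and glass-fibre filtered) or 1000 mL of unfiltered nanopure water was passed through a three-layer mixed-bed cartridge and eluted with basic and then acidic ethyl acetate/methanol. Standards were added before extraction, after extraction, or not at all, at 200 ng/L in water or 1000 ng/L in wastewater, with exceptions for some classes. Internal standards were added afterwards, and samples were analysed by liquid chromatography with high-resolution tandem mass spectrometry in both ionisation modes.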

[3] = LC retention time (Atlantis T3, 5-95% MeOH gradient, 0.1% formic acid); higher = more retained / less polar
In short: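 Retention times were recorded for reference standards on a polar reversed-phase C18 column. The standards were of purity ≥ 95%, and the Atlantis T3 column (3 × 150 mm, 3 μm) was run at 0.3 mL/min with a gradient from 5 to 95% methanol over 17.5 min, both water and methanol containing 0.1% formic acid. Detection used high-resolution tandem mass spectrometry on a QExactive Plus, with positive and negative electrospray in separate runs, and peaks were integrated in TraceFinder (5 ppm tolerance, at least three points per peak) before being checked by hand.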

| absolute recovery ([1]; wastewater effluent) [%] | absolute recovery ([1]; wastewater influent) [%] | absolute recovery ([2]; nanopure water) [%] | absolute recovery ([2]; surface water) [%] | absolute recovery ([2]; wastewater effluent) [%] | absolute recovery ([2]; wastewater influent) [%] | LC retention time [3] [min] | Compound |
| --- | --- | --- | --- | --- | --- | --- | --- |
| 106 | 99.5 | 93.7 | 91.2 | 93 | 92.4 | 19.1 | CC(C)N(C(=O)C(=O)[O-])c1ccc(F)cc1 [Flufenacet-OXA] |
| 103 | 103 | 100 | 97.7 | 96.3 | 84.9 | 16.7 | COc1cc(OC)n2nc([N-]S(=O)(=O)c3c(C(F)(F)F)ccnc3OC)nc2n1 [Pyroxsulam] |
| 97.9 | – | 77.4 | 93.7 | 90.8 | 96.7 | 13 | CCC1OC(=O)C(C)C(OC2CC(C)(OC)C(O)C(C)O2)C(C)C(OC2OC(C)CC([NH+](C)C)C2O)C(C)(O)CC(C)C[NH+](C)C(C)C(O)C1(C)O (centres undefined) [Azithromycin] |
| 106 | 102 | 93.1 | 94.8 | 93.4 | 92.7 | 10.4 | CC[NH+]1CCCC1CNC(=O)c1cc(S(=O)(=O)CC)c(N)cc1OC (centres undefined) [Amisulprid] |
| 87.8 | 78.5 | 84.4 | 84.7 | 82.7 | 83.7 | 16.4 | NC(=O)N1c2ccccc2CC(=O)c2ccccc21 [Oxcarbazepin] |
| 102 | 103 | 99.9 | 94.1 | 95.4 | 95.4 | 17.7 | CC(C)c1ccc(NC(N)=O)cc1 [Isoproturon-didemethyl (=1-(4-Isoprophenyl)urea)] |
| 99.1 | 97 | 93.2 | 96.3 | 96 | 99.6 | 13.2 | COc1cc2[nH+]c(N(C)CCCNC(=O)C3CCCO3)nc(N)c2cc1OC (centres undefined) [Alfuzosin] |
| 74.1 | 81.1 | 84.7 | 77.4 | 84.9 | 144 | 15.5 | CC(=O)N(C)c1ccccc1 [N-Methylacetanilid] |
| 108 | 96 | 99.1 | 97.9 | 90.7 | 94 | 14.5 | CC(=O)Nc1ccc(S(=O)(=O)[N-]c2cc(C)on2)cc1 [N4-Acetyl-Sulfamethoxazol] |
| 60.8 | 65.4 | 70.4 | 75.4 | 73.7 | 79.4 | 15.2 | COc1cccc2c1C(=O)c1c(O)c3c(c(O)c1C2=O)CC(O)(C(O)CO)CC3OC1CC([NH3+])C(O)C(C)O1 (centres undefined) [Doxorubicinol] |
| 108 | 91.4 | 96.2 | 92.9 | 90 | 90.1 | 18.3 | CC(C)c1nc(N(C)S(C)(=O)=O)nc(-c2ccc(F)cc2)c1C=CC(O)CC(O)CC(=O)[O-] (centres undefined) [Rosuvastatin] |
| 102 | 106 | 87.3 | 84 | 85.4 | 97.2 | 15.7 | Cc1cc(C(C)(C)C)cc(C)c1CC1=[NH+]CCN1 [Xylometazolin] |
| 97 | – | 73.8 | – | 79.2 | – | 21.1 | CC(CCC(=O)[O-])C1CCC2C3C(O)CC4CC(O)CCC4(C)C3CCC12C (centres undefined) [Ursodeoxycholic-acid] |
| 103 | 96.1 | 95.2 | 91.3 | 86.2 | 89.8 | 12.1 | Cc1cc(C)nc([N-]S(=O)(=O)c2ccc(N)cc2)n1 [Sulfamethazin] |
| 21.6 | 64.3 | 64.2 | 81.9 | 80.1 | 64.2 | 15.9 | COC(=O)C1C2CC3c4[nH]c5cc(OC)ccc5c4CC[NH+]3CC2CC(OC(=O)c2cc(OC)c(OC)c(OC)c2)C1OC (centres undefined) [Reserpin] |
| 118 | 101 | 94.2 | 100 | 94.9 | 88.7 | 16.5 | CCNC(=O)C(C)OC(=O)Nc1ccccc1 (centres undefined) [Carbetamid] |
| 108 | 93 | 76.1 | 36.1 | 78.5 | 77 | 16.6 | O=C1CC(C(=O)[O-])CC(=O)C1=C([O-])C1CC1 (centres undefined) [Trinexapac (free acid)] |
| 65.8 | 59.1 | 98.2 | 97.5 | 93.6 | 89.3 | 19.2 | COC(=O)c1ccc(C(F)(F)F)nc1S(=O)(=O)[N-]C(=O)Nc1nc(OC)cc(OC)n1 [Flupyrsulfuron-methyl-] |
| 89.8 | 92.3 | 96.4 | 85.1 | 85.2 | 98.8 | 20.1 | Cc1ccc(C(C)NC(=O)C(NC(=O)OC(C)C)C(C)C)cc1 (centres undefined) [Iprovalicarb] |
| 101 | 102 | 98.3 | 100 | 96.4 | 94.9 | 18 | NC(=O)Nc1ccc(Cl)c(Cl)c1 [Diuron-desdimethyl (=1-(3-4-Dichlorophenyl)urea)] |
| 100 | – | 109 | 135 | 112 | – | 6.11 | CN1C(=O)CCC1c1cccnc1 (centres undefined) [Cotinine] |
| 95.8 | 99.2 | 104 | 85.9 | 87.1 | 87.9 | 17.8 | Cc1cc(C)cc(OCC2CNC(=O)O2)c1 (centres undefined) [Metaxalone] |
| 101 | 97.9 | 77.3 | – | 78.8 | 87.3 | 16.2 | NS(=O)(=O)c1cc(C(=O)[O-])c(NCc2ccco2)cc1Cl [Furosemid] |
| 110 | 99.1 | 81.6 | 67.5 | 87.9 | 97.3 | 21.3 | CCc1cccc(C)c1N(C(=O)C(=O)[O-])C(C)COC (centres undefined) [Metolachlor-OXA] |

Further lines, the compound ahead of its results:

| Compound | absolute recovery ([1]; wastewater effluent) [%] | absolute recovery ([1]; wastewater influent) [%] | absolute recovery ([2]; nanopure water) [%] | absolute recovery ([2]; surface water) [%] | absolute recovery ([2]; wastewater effluent) [%] | absolute recovery ([2]; wastewater influent) [%] | LC retention time [3] [min] |
| --- | --- | --- | --- | --- | --- | --- | --- |
| O=S(=O)([O-])NC1CCCCC1 [Cyclamat] | 104 | – | 95.8 | – | 29 | – | 14.3 |
| c1cncc(C2CCC[NH2+]2)c1 (centres undefined) [Nornicotine] | 111 | 118 | 65.4 | – | 47.9 | 43.6 | 4.38 |
| Nc1cnn(-c2ccccc2)c(=O)c1Cl [Chloridazon] | 104 | 104 | 97.1 | 98.1 | – | 96.1 | 14.7 |
| C[NH+]=CNc1ccc(C)cc1C [N-(2-4-dimethylphenyl)-N-methylformamidine] | 76.9 | 79.1 | 35.1 | 27.7 | 47.9 | 52.5 | 11.1 |
| O=C(Cc1ccccc1)NC(=NOCC1CC1)c1c(C(F)(F)F)ccc(F)c1F [Cyflufenamid] | 95.4 | 117 | 91.9 | 106 | 106 | 84.3 | 20.9 |
| CON(C)C(=O)Nc1ccc(Cl)cc1 [Monolinuron] | 92.7 | – | – | 92.4 | 91.9 | 94.2 | 17.9 |
| CC(C)N(C(=O)COc1nnc(C(F)(F)F)s1)c1ccc(F)cc1 [Flufenacet] | 114 | 95.3 | 100 | 95.9 | 97.5 | 83.5 | 20.1 |
| O=C(Nc1ccccc1)N(Cc1ccc(Cl)cc1)C1CCCC1 [Pencycuron] | 117 | 124 | 84.2 | 110 | – | 80.4 | 21.4 |
| CSc1nnc(C(C)(C)C)c(=O)n1N [Metribuzin] | 101 | 99.6 | 91.1 | 94.1 | 89.8 | 95.2 | 17.3 |
| CC(Oc1ccc(Oc2ccc(C(F)(F)F)cn2)cc1)C(=O)[O-] (centres undefined) [Fluazifop] | 101 | 102 | 99.5 | 96.8 | 96.6 | 98 | 19.7 |
| O=P1(NCCCl)OCCCN1CCCl (centres undefined) [Ifosfamid] | 102 | 99.2 | 109 | 99.4 | 92.9 | 89.1 | 15.5 |
| CCCN(CCC)c1c([N+](=O)[O-])cc(S(N)(=O)=O)cc1[N+](=O)[O-] [Oryzalin] | 105 | 91.7 | 97 | 102 | 94 | 109 | 20.2 |
| CNC(=O)ON=C(C)SC [Methomyl] | 98.3 | 110 | 82.7 | 77.3 | 79 | 79.3 | 11.9 |
| CC(O)C(=O)Nc1c(I)c(C(=O)NC(CO)CO)c(I)c(C(=O)NC(CO)CO)c1I (centres undefined) [Iopamidol] | 107 | 103 | 59.6 | 64.5 | 70 | 53 | 7.78 |
| N#Cc1nn(-c2c(Cl)cc(C(F)(F)F)cc2Cl)c(N)c1SC(F)(F)F [Fipronil-sulfid] | 118 | 137 | 105 | 107 | 89.4 | 121 | 20.5 |
| N#Cc1c(Cl)c(Cl)c([O-])c(C(=[NH2+])[O-])c1Cl | 109 | 105 | 101 | 99.6 | 94.8 | – | 16.8 |
| CC(Cn1cnc2c(N)ncnc21)OCP(=O)([O-])O (centres undefined) [Tenofovir] | 105 | 114 | 70 | – | 1.9 | – | 7.16 |
| CCCC(C)(COC(N)=O)COC(=O)NC(C)C (centres undefined) [Carisoprodol] | 104 | 102 | 99.3 | 97.9 | 93.1 | 92.4 | 18.1 |
| C[NH+]1C2CCC1C(C(=O)[O-])C(OC(=O)c1ccccc1)C2 (centres undefined) [Benzoylecgonin] | 120 | 110 | 97.8 | 96 | 94.8 | 95.1 | 12.8 |
| CC(C)(C)C(O)C(Oc1ccc(Cl)cc1)n1cncn1 (centres undefined) [Triadimenol-A] | 87.1 | 97.4 | 98.4 | 83.6 | 85.5 | 94.1 | 20 |
| COCCN(C(=O)CCl)c1c(C)cccc1C [Dimethachlor] | 94.3 | 97.7 | 93 | 89.9 | 89.6 | 95.7 | 18.8 |
| O=c1[nH+]c[n-]c2c1ncn2C1CCC(CO)O1 (centres undefined) [Didanosin] | 84.9 | – | 107 | 85.1 | 83.5 | 102 | 9.79 |
| CCCCc1c(C)nc(NCC)nc1OS(=O)(=O)N(C)C [Bupirimate] | 105 | 117 | 83.8 | 85.1 | 93.3 | 74.8 | 19.3 |
| CC=CC(=O)N(CC)C(CC)C(=O)N(C)C (centres undefined) [Crotethamide] | 97.5 | 94.6 | 106 | 94.6 | 86.1 | 121 | 15.9 |
| CC1(C)CC1C(=O)NC(=CCCCCSCC([NH3+])C(=O)[O-])C(=O)[O-] (centres undefined) [Cilastatin] | 103 | 80.5 | 47.7 | 13.1 | 19.5 | 37 | 13.6 |
| CC(Cc1ccc(C(C)(C)C)cc1)C[NH+]1CCCCC1 (centres undefined) [Fenpropidin] | 146 | 46.3 | – | 107 | 94.1 | 67.3 | 16.4 |
| Nc1cn[nH+]c([O-])c1Cl [Chloridazon-desphenyl] | 102 | 98.3 | 58.5 | 67.9 | 70.2 | 72.3 | 7.56 |
| COC(=O)C(C)N(C(=O)Cc1ccccc1)c1c(C)cccc1C (centres undefined) [Benalaxyl] | 97.6 | 94.9 | 95.9 | 93 | 96 | 105 | 21.1 |
